Laboratory results as given in paper PMC9966414, “Pharmacological Profiling of KATP Channel Modulators: An Outlook for New Treatment Opportunities for Migraine” (Pharmaceuticals, 2023).

How the values were obtained:
[1] = target: T1, Kir6.2/SUR1 (Homo sapiens, UniProt Q09428+Q14654); assay: thallium-flux fluorescence assay (FLIPR, BTC/AM); assay type: cell-based
T1 construct: gene KCNJ11; full-length human subunits co-expressed stably in HEK293 cells; GenScript vectors; four Kir6.2 plus four SUR1
Text: thallium-flux fluorescence assay (FLIPR, BTC/AM) on Kir6.2/SUR1

[2] = target: T2, Kir6.2/SUR2A (Homo sapiens, UniProt O60706+Q14654); assay: thallium-flux fluorescence assay (FLIPR, BTC/AM); assay type: cell-based
T2 construct: gene KCNJ11; full-length human subunits co-expressed stably in HEK293 cells; GenScript vectors; four Kir6.2 plus four SUR2A
T2 sequence (Q14654 whole entry): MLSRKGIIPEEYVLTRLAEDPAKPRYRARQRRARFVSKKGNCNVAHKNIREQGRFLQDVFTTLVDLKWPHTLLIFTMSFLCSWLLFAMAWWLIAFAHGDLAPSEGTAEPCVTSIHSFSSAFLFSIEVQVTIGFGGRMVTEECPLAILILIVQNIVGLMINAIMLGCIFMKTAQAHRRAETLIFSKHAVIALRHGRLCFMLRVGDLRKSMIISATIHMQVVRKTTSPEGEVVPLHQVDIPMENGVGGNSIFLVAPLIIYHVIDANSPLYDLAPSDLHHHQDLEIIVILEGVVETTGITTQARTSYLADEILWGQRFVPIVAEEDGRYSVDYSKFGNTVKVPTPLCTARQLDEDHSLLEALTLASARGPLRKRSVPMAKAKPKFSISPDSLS
T2 sequence (O60706 whole entry): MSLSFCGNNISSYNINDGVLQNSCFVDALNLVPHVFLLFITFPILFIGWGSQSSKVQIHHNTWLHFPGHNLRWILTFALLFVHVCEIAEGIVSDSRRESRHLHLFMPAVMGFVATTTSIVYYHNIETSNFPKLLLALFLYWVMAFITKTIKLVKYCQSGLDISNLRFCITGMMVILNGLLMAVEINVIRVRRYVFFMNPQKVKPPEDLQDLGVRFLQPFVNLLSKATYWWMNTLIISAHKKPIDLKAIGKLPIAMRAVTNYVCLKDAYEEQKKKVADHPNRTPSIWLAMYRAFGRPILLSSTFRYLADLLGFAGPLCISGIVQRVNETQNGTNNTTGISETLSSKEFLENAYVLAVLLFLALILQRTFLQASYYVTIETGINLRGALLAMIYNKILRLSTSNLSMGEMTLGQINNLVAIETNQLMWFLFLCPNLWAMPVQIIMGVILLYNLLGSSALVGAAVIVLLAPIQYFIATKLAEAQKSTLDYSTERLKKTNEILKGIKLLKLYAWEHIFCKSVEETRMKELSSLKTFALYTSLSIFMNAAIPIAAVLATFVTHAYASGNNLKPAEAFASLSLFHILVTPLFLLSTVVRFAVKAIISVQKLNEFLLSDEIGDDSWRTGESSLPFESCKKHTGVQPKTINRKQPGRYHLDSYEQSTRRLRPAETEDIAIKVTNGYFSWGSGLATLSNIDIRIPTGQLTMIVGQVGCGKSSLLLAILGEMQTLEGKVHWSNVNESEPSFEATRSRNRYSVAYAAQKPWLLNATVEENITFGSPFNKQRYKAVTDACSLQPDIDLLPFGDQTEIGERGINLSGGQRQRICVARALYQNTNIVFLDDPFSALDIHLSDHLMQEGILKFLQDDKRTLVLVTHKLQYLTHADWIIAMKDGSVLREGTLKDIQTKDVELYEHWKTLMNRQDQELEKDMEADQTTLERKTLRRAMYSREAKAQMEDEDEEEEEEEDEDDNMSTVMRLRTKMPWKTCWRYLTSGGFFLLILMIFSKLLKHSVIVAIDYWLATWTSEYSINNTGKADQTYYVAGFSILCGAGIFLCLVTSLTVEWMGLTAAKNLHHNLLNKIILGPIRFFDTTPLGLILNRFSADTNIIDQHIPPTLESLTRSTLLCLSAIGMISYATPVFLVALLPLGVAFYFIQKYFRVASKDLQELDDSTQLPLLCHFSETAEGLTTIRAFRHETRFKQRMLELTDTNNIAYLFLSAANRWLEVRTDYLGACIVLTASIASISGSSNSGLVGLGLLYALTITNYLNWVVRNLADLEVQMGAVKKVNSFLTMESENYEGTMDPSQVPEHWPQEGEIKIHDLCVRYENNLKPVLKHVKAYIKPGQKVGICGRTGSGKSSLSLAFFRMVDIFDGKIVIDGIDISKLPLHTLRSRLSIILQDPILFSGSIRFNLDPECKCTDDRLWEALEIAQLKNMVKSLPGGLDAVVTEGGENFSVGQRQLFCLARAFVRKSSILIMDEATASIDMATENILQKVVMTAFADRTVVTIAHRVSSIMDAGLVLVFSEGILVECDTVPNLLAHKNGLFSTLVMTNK
Text: (§1) thallium-flux fluorescence assay (FLIPR, BTC/AM) on Kir6.2/SUR2A

[3] = target: T3, Kir6.1/SUR2B (Homo sapiens, UniProt O60706+Q15842); assay: thallium-flux fluorescence assay (FLIPR, BTC/AM); assay type: cell-based
T3 construct: gene KCNJ8; full-length human subunits co-expressed stably in HEK293 cells; GenScript vectors; four Kir6.1 plus four SUR2B
T3 sequence (Q15842 whole entry): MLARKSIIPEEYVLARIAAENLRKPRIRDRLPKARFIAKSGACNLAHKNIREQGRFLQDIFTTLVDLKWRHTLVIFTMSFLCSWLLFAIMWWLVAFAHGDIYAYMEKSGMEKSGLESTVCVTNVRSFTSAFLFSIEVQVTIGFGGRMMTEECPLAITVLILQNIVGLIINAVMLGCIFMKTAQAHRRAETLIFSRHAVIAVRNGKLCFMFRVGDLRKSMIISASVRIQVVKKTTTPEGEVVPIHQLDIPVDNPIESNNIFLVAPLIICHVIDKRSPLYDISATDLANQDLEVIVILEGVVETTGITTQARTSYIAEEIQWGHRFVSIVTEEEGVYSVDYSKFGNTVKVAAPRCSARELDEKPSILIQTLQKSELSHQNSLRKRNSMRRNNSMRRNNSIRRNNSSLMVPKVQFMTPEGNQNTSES
T3 sequence (O60706 1-1549 isoform O60706-2): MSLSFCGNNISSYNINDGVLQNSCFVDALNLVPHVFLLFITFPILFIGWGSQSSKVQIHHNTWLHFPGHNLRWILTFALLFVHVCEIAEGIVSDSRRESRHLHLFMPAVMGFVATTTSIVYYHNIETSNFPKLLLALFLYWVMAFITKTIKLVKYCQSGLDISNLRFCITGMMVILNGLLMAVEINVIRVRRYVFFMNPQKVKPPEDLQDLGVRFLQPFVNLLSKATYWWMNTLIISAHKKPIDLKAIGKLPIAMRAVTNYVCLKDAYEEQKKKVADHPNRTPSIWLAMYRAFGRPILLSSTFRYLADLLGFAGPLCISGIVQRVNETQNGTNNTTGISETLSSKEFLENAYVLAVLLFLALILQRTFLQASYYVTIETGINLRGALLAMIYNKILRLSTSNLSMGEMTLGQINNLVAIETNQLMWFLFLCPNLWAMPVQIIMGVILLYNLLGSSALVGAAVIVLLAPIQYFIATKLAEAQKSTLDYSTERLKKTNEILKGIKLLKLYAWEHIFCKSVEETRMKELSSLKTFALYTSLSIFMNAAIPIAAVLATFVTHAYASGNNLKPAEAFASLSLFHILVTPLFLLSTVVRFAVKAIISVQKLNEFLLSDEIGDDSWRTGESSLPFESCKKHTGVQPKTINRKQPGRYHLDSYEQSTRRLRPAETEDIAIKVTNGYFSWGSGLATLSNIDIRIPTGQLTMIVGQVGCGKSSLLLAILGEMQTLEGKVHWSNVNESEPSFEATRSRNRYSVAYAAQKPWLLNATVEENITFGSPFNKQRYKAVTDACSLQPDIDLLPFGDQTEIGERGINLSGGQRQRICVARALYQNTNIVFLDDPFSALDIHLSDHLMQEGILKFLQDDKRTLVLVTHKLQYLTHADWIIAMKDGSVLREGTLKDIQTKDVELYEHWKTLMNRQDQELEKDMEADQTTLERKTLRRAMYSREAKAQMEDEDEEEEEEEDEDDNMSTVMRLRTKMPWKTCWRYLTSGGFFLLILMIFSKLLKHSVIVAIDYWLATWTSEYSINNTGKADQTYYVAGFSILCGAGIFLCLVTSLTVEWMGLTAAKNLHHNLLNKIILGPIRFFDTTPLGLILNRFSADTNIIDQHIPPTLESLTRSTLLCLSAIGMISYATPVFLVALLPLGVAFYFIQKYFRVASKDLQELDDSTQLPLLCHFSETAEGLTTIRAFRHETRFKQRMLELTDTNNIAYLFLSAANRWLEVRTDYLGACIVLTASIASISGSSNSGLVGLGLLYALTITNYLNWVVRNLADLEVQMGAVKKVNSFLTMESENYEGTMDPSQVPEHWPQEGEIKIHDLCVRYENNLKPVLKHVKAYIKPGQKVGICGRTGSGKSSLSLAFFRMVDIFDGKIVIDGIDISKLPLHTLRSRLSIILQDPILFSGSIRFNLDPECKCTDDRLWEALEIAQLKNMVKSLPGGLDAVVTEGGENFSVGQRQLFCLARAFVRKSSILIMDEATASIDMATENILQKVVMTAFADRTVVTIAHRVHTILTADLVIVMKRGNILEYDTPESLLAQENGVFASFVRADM
Text: thallium-flux fluorescence assay (FLIPR, BTC/AM) on Kir6.1/SUR2B

[4] = thallium-flux fluorescence assay (FLIPR, BTC/AM); assay type: cell-based, Homo sapiens; conditions: read-out: Kir6.1/SUR2B / EC50
Text: as §1

[5] = thallium-flux fluorescence assay (FLIPR, BTC/AM); assay type: cell-based, Homo sapiens; conditions: read-out: Kir6.2/SUR1 / IC50

Row | SMILES | EC50 [3] | IC50 [2] | IC50 [3] | IC50 [1] | further results
1 | O=C1CCCC2=C1[C@H](c1ccc(F)c(Br)c1)C1=C(CCS1(=O)=O)N2 [A-278637] | 170 ± 89 nM |  |  |  | EC50 [1]: > 30000 nM; EC50 [2]: 1600 ± 890 nM
2 | CC1=NS(=O)(=O)c2cc(Cl)ccc2N1 [Diazoxide] | 9700 ± 5700 nM |  |  |  | EC50 [2]: > 100000 nM
3 | COc1ccc(Cl)cc1C(=O)NCCc1ccc(S(=O)(=O)NC(=O)NC2CCCCC2)cc1 [Glibenclamide] |  | 9.9 ± 4.1 nM | 21 ± 14 nM |  | 
4 | Cc1ccc(S(=O)(=O)NC(=O)NN2CC3CCCC3C2)cc1 (centres unmarked) [Gliclazide] |  | 55000 ± 22000 nM | 24000 ± 11000 nM | 610 ± 450 nM | 
5 | CCC1=C(C)CN(C(=O)NCCc2ccc(S(=O)(=O)NC(=O)N[C@H]3CC[C@H](C)CC3)cc2)C1=O [Glimepiride] |  | 17 ± 9 nM | 33 ± 23 nM | 2.3 ± 1.2 nM | 
6 | COc1ccc2c(c1)C(=O)N(CCc1ccc(S(=O)(=O)NC(=O)NC3CCCCC3)cc1)C(=O)C2(C)C [Gliquidone] |  | 780 ± 580 nM | 4500 ± 3600 nM | 6.9 ± 5 nM | 
7 | CC(C)[C@H]1CC[C@H](C(=O)N[C@H](Cc2ccccc2)C(=O)O)CC1 [Nateglinide] |  | 16000 ± 7300 nM | 14000 ± 6700 nM | 44 ± 13 nM | 
8 | C1CCC(/N=C(\NC23CC4CC(CC(C4)C2)C3)N2CCOCC2)CC1 [PNU-37883A] |  |  | 290 ± 210 nM | > 100000 nM | IC50 [5]: > 100000 nM
9 | CC(N/C(=N\C#N)Nc1ccncc1)C(C)(C)C (centres unmarked) [Pinacidil] |  |  |  |  | EC50 [1]: > 30000 nM
10 | CCOc1cc(CC(=O)N[C@@H](CC(C)C)c2ccccc2N2CCCCC2)ccc1C(=O)O [Repaglinide] |  | 0.94 ± 0.46 nM | 1.1 ± 0.6 nM | 3.9 ± 1.4 nM | 
11 | CN(CCOc1ccc(CC2SC(=O)NC2=O)cc1)c1ccccn1 (centres unmarked) [Rosiglitazone] |  |  | 8500 ± 4600 nM | > 100000 nM | IC50 [5]: > 100000 nM
12 | CCCCNC(=O)NS(=O)(=O)c1ccc(C)cc1 [Tolbutamide] |  | 71000 ± 12000 nM | 41000 ± 11000 nM | 7500 ± 4100 nM | 
13 | Cc1c(C)c2c(c(C)c1O)CCC(C)(COc1ccc(CC3SC(=O)NC3=O)cc1)O2 (centres unmarked) [Troglitazone] |  | 30000 ± 16000 nM | 10000 ± 6500 nM | 14000 ± 3100 nM | 

More lines, main results first:

Row | EC50 [3] | IC50 [2] | IC50 [3] | IC50 [1] | SMILES | further results
14 | > 30000 nM |  |  |  | CC1(C)Oc2ccc(C#N)cc2[C@H](N(Cc2ncc[nH]2)c2ccc(Cl)cc2)[C@H]1O [BMS-191095] | EC50 [4]: > 30000 nM
15 | > 30000 nM |  |  |  | CC1(NC2=NS(=O)(=O)c3sc(Cl)cc3N2)CC1 [NN414] | 
16 | 52 ± 24 nM |  |  |  | CCC(C)(C)NC(=NC#N)Nc1cccnc1 [P1075] | EC50 [1]: > 30000 nM; EC50 [2]: 510 ± 270 nM
17 | 75 ± 42 nM |  |  |  | CC(=O)N(O)[C@@H]1c2cc(C#N)ccc2OC(C)(C)[C@H]1O [Y-26763] | EC50 [1]: 4100 ± 2100 nM; EC50 [2]: 1300 ± 970 nM
18 | 150 ± 90 nM |  |  |  | CC(O)(C(=O)Nc1ccc(S(=O)(=O)c2ccccc2)cc1)C(F)(F)F (centres unmarked) [ZM226600] | EC50 [1]: > 30000 nM; EC50 [2]: 2800 ± 2200 nM
